Reference: patent publication US4794116A, “Anti-allergic esters, acetal ethers, thioethers and nitrogen substituted derivatives of bicyclic compounds” (Schering Corporation, priority 1986, dated 1988)

How the values were obtained:
[1] = test system: anaphylactic bronchospasm; assay: inhibition of anaphylactic bronchospasm in sensitized guinea pigs having antigen induced broncho-constriction; assay type: in vivo, guinea pig (male Hartley); details: for % Inhibition After 8 hr (peak increase in intratracheal pressure): 8 hours before ovalbumin challenge
Experimental: The anti-allergy method of this invention is identified by tests which measure a compound's inhibition of anaphylactic bronchospam in sensitized guinea pigs having antigen induced broncho-constriction.
In one such test procedure, male Hartley guinea pigs (250-300 g) are sensitized with 5 mg ovalbumin injected i.p. and 5 mg injected s.c. in 1 ml saline on day 1 and 5 mg ovalbumin injected i.p. on day 4. The sensitized animals are used 3-4 weeks later at which time they weigh 450-500 g.
The sensitized guinea pigs are fasted overnight and the following morning are anesthetized with 0.9 ml/kg i.p. of dialurethane (0.1 g/m diallybarbituric acid, 0.4 g/ml ethylurea and 0.4 g/ml urethane). The trachea are cannulated and the animals are ventilated by a Harvard rodent respirator at 50 strokes/minute with a stroke volume of 5 ml. A side arm to the tracheal cannula is connected to a Harvard pressure transducer to obtain a continuous measure of intratracheal pressure which is recorded on a Harvard polygraph. The jugular vein is cannulated for the i.v. administration of substances. The animals are challenged with antigen (0.5% ovalbumin) as an aerosol generated from a DeVilbiss Model 65 ultrasonic nebulizer and delivered through the tracheal cannula for 30 seconds. Bronchoconstriction is measured as the peak increase in intratracheal pressure occuring within 5 minutes after antigen challenge.
The sensitized guinea pigs are injected i.v. with 1 mg/kg propranolol, 5 mg/kg indomethacin and 2 mg/kg mepyramine given together in a volume of 1 ml/kg. Fifteen minutes later the animals are challenged with nebulized ovalbumin. Test compounds are administered orally 2 or 8 hours before challenge with ovalbumin. Suppression of anaphylactic bronchospasm is expressed as a percent inhibition of the peak increase in intratracheal pressure by comparison to a vehicle-treated control group.
*This measurement was made in a 21/2 day multipledosing regimen version o

paw edema = assay: Reversed Passive Arthus Response (RPAR) Paw; assay type: in vivo, rat (male Lewis); details: oral dose of 25 mg/kg; for inhibited the paw edema at 2 hours: 2 hours post-challenge; for inhibited the paw edema at 4 hours: 4 hours post-challenge
Experimental: Reversed Passive Arthus Response (RPAR) PAW Animals, Materials and Methods
Male Lewis inbred albino rats weighing 180-200 grams obtained from Charles River Breeding Laboratories are used in these experiments. The rats are housed 3 animals/cage and food and water are allowed ad libitum. The animals are numbered 1-3 in each cage and color marked for identification purposes.
CL Drug and Reagent Preparation
All reagents and drugs are prepared just prior to the study. Crystallized and lyophilized bovine serum albumin (BSA), available from Sigma Chemical Company, is solubilized without shaking in cold, sterile, pyrogen-free saline (10 mg/ml). Lyophilized anti-bovine serum albumin (IgG fraction), obtained from Cappel Laboratories, is suspended in sterile distilled water and diluted with cold, pyrogen-free saline (PFS) just prior to use. The final concentration of anti-bovine serum albumin is 0.5 mg/ml of PFS. Both BSA and anti-BSA solutions are iced during use. Drugs are suspended or solubilized in an aqueous solution of methyl cellulose (MC) with an homogenizer just prior to administration.
Drug Administration and Induction of Inflammation
Groups of animals (6/group) are dosed with drug in MC by gavage once daily for 3 days. The last dose is administered one hour prior to sensitization with BSA. Controls are given MC alone and a drug-standard is usually included in each assay for verification purposes. Drugs are prepared and diluted so as to provide a dose for a 200 gram animal which is equivalent to the mg/kg dose for each experiment. Thus each rat receives an oral dose in a volume of approximately 2.0 cc. One hour after the last dose the animals are lightly anesthetized with ether and "sensitized" by injection of 0.2 ml of PFS containing 1.0 mg of BSA into the penile vein. One hour later, the animals are "challenged" in the right rear paw with subplantar injections of 0.2 ml of PFS containing 0.1 mg of anti-BSA. Immediately after the subplantar injection, the right paw is dipped (up to the lateral maleolus) into the mercury well of a plethysmograph. The volume of mercury displaced is converted to weight and recorded. This value is considered to be the control reading for the animal. Paw volumes are subsequently recorded with a plethysmograph during the development of the inflammation at 2 and 4 hours post-challenge.
Results are expressed by the change in paw volume (Δpaw volume) from the control reading for each animal to that recorded 2 and 4 hours post-challenge. All drug treated groups are compared to the MC control for significant differences with an analysis of variance. Differences from control in drug-treated groups are expressed as percent change from control. […]

[2] = 5 mg/kg p.o., 2 hours before ovalbumin challenge

Cc1ccc(C(=O)Oc2c(N3CCCC3)c(=O)n(-c3ccccc3)c3ncccc23)cc1 [Example 1, 4-(4-methylbenzoyloxy)-1-phenyl-3(1-pyrrolidinyl)-1,8-naphthyridin-2(1H)-one]
% Inhibition After 2 hr (peak increase in intratracheal pressure) [1, 2]: 30% | % Inhibition After 8 hr (peak increase in intratracheal pressure) ([1]; 5 mg/kg p.o.): 0%

CC(=O)Oc1c(N2CCCC2)c(=O)n(-c2ccccc2)c2ncccc12 [Example 2, 4-acetyloxy-1-phenyl-3-(1-pyrrolidinyl)-1,8-naphthyridin-2(1H)-one]
% Inhibition After 2 hr (peak increase in intratracheal pressure) ([1]; 10 mg/kg p.o., 2 1/2 day multiple-dosing regimen version of the assay): 87%

CC(C)(C)C(=O)Oc1c(N2CCCC2)c(=O)n(-c2ccccc2)c2ncccc12 [Example 3, 4-(2,2-dimethylpropionyloxy)-1-phenyl-3-(1-pyrrolidinyl)-1,8-naphthyridin-2(1H)-one]
inhibited the paw edema at 2 hours (paw edema): 28% | inhibited the paw edema at 4 hours (paw edema): 5% | % Inhibition After 2 hr (peak increase in intratracheal pressure) [1, 2]: 48% | % Inhibition After 8 hr (peak increase in intratracheal pressure) ([1]; 5 mg/kg p.o.): 49%

CCN(CC)C(=O)Oc1c(N2CCCC2)c(=O)n(-c2ccccc2)c2ncccc12 [Example 4, 4-(N,N-diethylcarbamoyloxy)-1-phenyl-3-(1-pyrrolidinyl)-1,8-naphthyridin-2(1H)-one]
inhibited the paw edema at 2 hours (paw edema): 54% | inhibited the paw edema at 4 hours (paw edema): 17% | % Inhibition After 2 hr (peak increase in intratracheal pressure) [1, 2]: 48% | % Inhibition After 8 hr (peak increase in intratracheal pressure) ([1]; 5 mg/kg p.o.): 32%
